Measurements as given in article PMC10434152, “Effectors of the Type VI Secretion System Have the Potential to Be Modified into Antimicrobial Peptides” (Microbiology Spectrum, 2023).
Read-outs that look alike come from different tables or passages of the source. Residues, ends and D or L forms follow the SMILES beside them.

Key:
[1] = tested on: S. aureus ATCC 25923; assay: MIC and MBC against laboratory strain S. aureus ATCC 25923; assay type: cell-based, Staphylococcus aureus; conditions: for MBC: 10 μL from MIC put into Mueller-Hinton agar medium, 24 h; for MIC: 37°C, 18 to 20 h
Procedure: (§1) MIC was measured according to Luna et al. ([25]) as described previously. Briefly, 100 μL of RPMI 1640 medium containing drugs at various concentrations was cultured with 100 μL of bacteria at 1 × 10^6 CFU/mL in 96-well plates at 37°C for 18 to 20 h. Wells containing 100 μL of bacteria at 1 × 10^6 CFU/mL and 100 μL medium were used as positive controls. Wells containing 100 μL drug and 100 μL medium were used as drug-negative controls, and wells containing 200 μL medium were used as negative controls.
(§2) The MBC, in which a combination of 10 μL from MIC was put into Mueller-Hinton agar medium and incubated for 24 h, was the first one in which […].

[2] = tested on: E. coli ATCC 25922; assay: MIC and MBC against laboratory strain E. coli ATCC 25922; assay type: cell-based, Escherichia coli; conditions: for MBC: 10 μL from MIC put into Mueller-Hinton agar medium, 24 h; for MIC: 37°C, 18 to 20 h
Procedure: as §1, §2

[3] = tested on: S. aureus USA200; assay: Checkerboard combination with ciprofloxacin; assay type: cell-based; conditions: in combination with ciprofloxacin
[4] = tested on: ExPEC PCN033; assay: MIC and MBC against MDR bacteria; assay type: cell-based, Escherichia coli; conditions: for MBC: Mueller-Hinton agar, 24 h; for MIC: RPMI 1640, 37°C, 18 to 20 h
Procedure: as §1, §2

[5] = tested on: ExPEC RS218; assay: MIC and MBC against MDR bacteria; assay type: cell-based, Escherichia coli; conditions: for MBC: Mueller-Hinton agar, 24 h; for MIC: RPMI 1640, 37°C, 18 to 20 h
Procedure: as §1, §2

[6] = tested on: Streptococcus SC19; assay: MIC and MBC against MDR bacteria; assay type: cell-based; conditions: for MBC: Mueller-Hinton agar, 24 h; for MIC: RPMI 1640, 37°C, 18 to 20 h
Procedure: as §1, §2

[7] = tested on: S. aureus ATCC 43300; assay: MIC and MBC against MDR bacteria; assay type: cell-based; conditions: for MBC: Mueller-Hinton agar, 24 h; for MIC: RPMI 1640, 37°C, 18 to 20 h
Procedure: as §1, §2

[8] = tested on: S. aureus USA300; assay: MIC and MBC against MDR bacteria; assay type: cell-based; conditions: for MBC: Mueller-Hinton agar, 24 h; for MIC: RPMI 1640, 37°C, 18 to 20 h
Procedure: as §1, §2

[9] = tested on: Bacillus subtilis NCD-2; assay: MIC and MBC against MDR bacteria; assay type: cell-based; conditions: for MBC: Mueller-Hinton agar, 24 h; for MIC: RPMI 1640, 37°C, 18 to 20 h
Procedure: as §1, §2

[10] = tested on: S. aureus USA200; assay: MIC and MBC against MDR bacteria; assay type: cell-based; conditions: for MBC: Mueller-Hinton agar, 24 h
Procedure: as §1, §2

[11] = tested on: S. aureus 1802043; assay: MIC and MBC against MDR bacteria; assay type: cell-based; conditions: for MBC: Mueller-Hinton agar, 24 h; for MIC: RPMI 1640, 37°C, 18 to 20 h
Procedure: as §1, §2

[12] = tested on: S. aureus USA200; assay: S. aureus-infected mouse model, survival; assay type: in vivo; conditions: BALB/c mice, n = 10, 1 × 10^7 bacteria i.p.; 20 mg/kg i.p. 6 h after infection; survival after 7 days
Procedure: To determine the drug protection rate fraction, S. aureus USA200 that had been cultured overnight was cultured in LB broth to an OD600 of 0.5, washed three times, and resuspended in PBS. Forty female BALB/c mice (18 ± 2 g each) were divided randomly into four groups. All four groups (n = 10) of mice were injected intraperitoneally with 1 × 10^7 bacteria. Six hours after infection, the animals in the four groups received 20 mg/kg Tsap-1, 20 mg/kg ciprofloxacin, 10 mg/kg Tsap-1, and 10 mg/kg ciprofloxacin or an equal amount of PBS by intraperitoneal injection. The survival rate of the mice was recorded after 7 days.

[13] = tested on: S. aureus USA200; assay: Mouse tissue load experiment; assay type: in vivo; conditions: BALB/c mice, five per group, 20 mg/kg i.p., tissues (liver, spleen, lung, kidney) harvested 12 h later, CFU
Procedure: For the mouse tissue load experiment, the bacteria were manipulated as described previously. Twenty female BALB/c mice (18 ± 2 g each) were divided randomly into four groups of five mice each. The animals in the four groups were injected intraperitoneally with 20 mg/kg Tsap-1 AMP, 20 mg/kg ciprofloxacin, 10 mg/kg Tsap-1, and 10 mg/kg ciprofloxacin or an equal amount of PBS. Twelve hours later, the mice were anesthetized with ether and perfused with PBS, and their livers, spleens, lungs, and kidneys were harvested. The tissues were then homogenized using a tissue grinder. Then, 10× serial dilutions of the homogenates were prepared and plated onto LB plates, and the CFUs were counted.

[14] = tested on: Sheep red blood cells; assay: Hemolytic activity; assay type: cell-based; conditions: 4 μg/mL; 10% SRBCs, 37°C, 6 h, absorbance 540 nm, triplicate
Procedure: Sheep red blood cells (SRBCs) were used to detect hemolytic activity according to a previous method. Briefly, fresh SRBCs were washed with PBS, and a suspension of 10% SRBCs was mixed with solutions of Tsap or melittin at various concentrations. After incubation at 37°C for 6 h, the cells were removed by centrifugation at 800 × g for 10 min, and the absorbance of the supernatant at 540 nm was measured. Culture supernatant from cells that had been stimulated with 1% Triton X-100 was used as a positive control, and culture supernatant from cells that had been incubated with PBS was used as a negative control. Each measurement was taken in triplicate.

[15] = RPMI 1640 medium, 1 × 10^6 CFU/mL, 96-well plates
[16] = RPMI supplemented with Glycine (0.5 mM)
[17] = RPMI supplemented with L-Arginine (0.5 mM)
[18] = RPMI supplemented with L-Histidine (0.5 mM)
[19] = RPMI supplemented with L-Tryptophan (0.125 mM)
[20] = RPMI supplemented with Leucine (1 mM)
[21] = RPMI supplemented with nonessential amino acid solution
[22] = S. aureus USA200, RPMI 1640, 37°C, 18 to 20 h

Molecule | MBC [1] | MIC [1, 15] | MIC [1, 16] | MIC [1, 17] | MIC [1, 18] | MIC [1, 19] | MIC [1, 20] | MIC [1, 21] | MBC [2] | MIC [2, 15] | MIC [2, 16] | MIC [2, 17] | MIC [2, 18] | MIC [2, 19] | MIC [2, 20] | MIC [2, 21] | fractional inhibitory concentration index (FICI) [3] | MBC [4] | MIC [4] | MBC [5] | also measured
CC[C@H](C)[C@H](NC(=O)[C@H](CCSC)NC(=O)[C@H](CCCCN)NC(=O)[C@H](CCCCN)NC(=O)[C@H](CC(C)C)NC(=O)[C@H](CCCCN)NC(=O)[C@H](CCCCN)NC(=O)[C@@H](N)Cc1c[nH]c2ccccc12)C(=O)N[C@@H](CCCCN)C(=O)N[C@@H](CCCCN)C(=O)O [Tsap1] (H-WKKLKKMIKK-OH) | 4 mg/L | 16 mg/L | 16 mg/L | 16 mg/L | 16 mg/L | 16 mg/L | 16 mg/L | 16 mg/L | 4 mg/L | 32 mg/L | 16 mg/L | 16 mg/L | 32 mg/L | 32 mg/L | 32 mg/L | 16 mg/L | 0.5 | 32 mg/L | 64 mg/L | 32 mg/L | MIC [5]: 64 mg/L; MBC [6]: 4 mg/L; MIC [6]: 16 mg/L; MBC [7]: 4 mg/L; MIC [7]: 16 mg/L; MBC [8]: 2 mg/L; MIC [8]: 16 mg/L; MBC [9]: 4 mg/L; MIC [9]: 16 mg/L; MBC ([10]; S. aureus USA200): 8 mg/L; MIC [10, 22]: 64 mg/L; MBC [11]: 2 mg/L; MIC [11]: 16 mg/L
CC[C@H](C)[C@H](NC(=O)[C@H](CCSC)NC(=O)[C@H](CCCCN)NC(=O)[C@H](CCCCN)NC(=O)[C@H](CC(C)C)NC(=O)[C@H](C)NC(=O)[C@H](CCCCN)NC(=O)[C@@H](N)Cc1c[nH]c2ccccc12)C(=O)N[C@@H](CCSC)C(=O)N[C@@H](CCCCN)C(=O)N[C@H](C(=O)O)[C@@H](C)O [Tsap2] (H-WKALKKMIMKT-OH) | 16 mg/L | 64 mg/L | 64 mg/L | 16 mg/L | 64 mg/L | 64 mg/L | 64 mg/L | 64 mg/L | 32 mg/L | 128 mg/L | 64 mg/L | 64 mg/L | 128 mg/L | 128 mg/L | 128 mg/L | 64 mg/L | 1.125 | 64 mg/L | 256 mg/L | 64 mg/L | MIC [5]: 256 mg/L; MBC [6]: 8 mg/L; MIC [6]: 16 mg/L; MBC [7]: 8 mg/L; MIC [7]: 16 mg/L; MBC [8]: 8 mg/L; MIC [8]: 16 mg/L; MBC [9]: 8 mg/L; MIC [9]: 16 mg/L; MBC ([10]; S. aureus USA200): 64 mg/L; MIC [10, 22]: 512 mg/L; MBC [11]: 8 mg/L; MIC [11]: 16 mg/L
CC[C@H](C)[C@H](NC(=O)[C@H](CCCCN)NC(=O)[C@H](CCSC)NC(=O)[C@@H](NC(=O)[C@H](CCSC)NC(=O)[C@H](CCCCN)NC(=O)[C@H](CCCCN)NC(=O)[C@H](CC(C)C)NC(=O)[C@H](C)NC(=O)[C@H](CCCCN)NC(=O)[C@@H](N)Cc1c[nH]c2ccccc12)[C@@H](C)CC)C(=O)O [Tsap3] (H-WKALKKMIMKI-OH) | 8 mg/L | 16 mg/L | 16 mg/L | 16 mg/L | 16 mg/L | 16 mg/L | 16 mg/L | 16 mg/L | 4 mg/L | 32 mg/L | 16 mg/L | 16 mg/L | 32 mg/L | 32 mg/L | 32 mg/L | 16 mg/L | 1.25 | 32 mg/L | 64 mg/L | 32 mg/L | MIC [5]: 64 mg/L; MBC [6]: 4 mg/L; MIC [6]: 16 mg/L; MBC [7]: 4 mg/L; MIC [7]: 16 mg/L; MBC [8]: 2 mg/L; MIC [8]: 16 mg/L; MBC [9]: 4 mg/L; MIC [9]: 16 mg/L; MBC ([10]; S. aureus USA200): 16 mg/L; MIC [10, 22]: 64 mg/L; MBC [11]: 2 mg/L; MIC [11]: 16 mg/L
O=C(O)c1cn(C2CC2)c2cc(N3CCNCC3)c(F)cc2c1=O [ciprofloxacin] |  |  |  |  |  |  |  |  |  |  |  |  |  |  |  |  |  |  |  |  | protection [12]: 60%; reduction of bacterial loads in all tissues compared with untreated group [13]: about 32 times; MIC ([10]; Staphylococcus aureus, S. aureus USA200, stated in text, read-out: MIC): 16 mg/L
melittin |  |  |  |  |  |  |  |  |  |  |  |  |  |  |  |  |  |  |  |  | hemolysis activity [14]: complete hemolysis activity
